Data from patent US20220213099A1, “PRODRUG COMPOUNDS” (BRISTOL-MYERS SQUIBB COMPANY, priority 2019, published 2022).
Values after ≈ are worked out from the molar mass of the structure shown. Counter-ions that a name gives are not always drawn. Like-named read-outs stand apart in the source and are kept apart here.

Experiments:
[1] = Solubility evaluation in aqueous buffer; assay type: physicochemical; settings: thermodynamic from solid, about 24 hours equilibration
Method: The solid powder of an individual prodrug was equilibrated in aqueous buffers of pH 1, 4 and 6.5 at 25° C. for about 24 hours. After equilibration, the excess solid was separated by filtration using 0.45 μm membrane filter and the filtrate was collected in suitable glass vial. The filtrate was diluted appropriately using respective buffers/diluent and analyzed by a reversed phase LC method with UV detection.

[2] = Stability evaluation in aqueous buffer; assay type: physicochemical; settings: aqueous buffer, 37° C., about 50 μg/mL, about 15% v/v acetonitrile
Method: The stability study of an individual prodrug was conducted with about 50 μg/mL solutions in aqueous buffers of pH 1 (0.1 M HCl), 4 (acetate buffer) and 6.5 (phosphate buffer) at 37° C. for 24 hours. About 15% v/v acetonitrile was used in these pH buffers as a co-solvent to obtain clear solutions of prodrugs. The sample analysis was carried out using a generic reversed phase liquid chromatographic (LC) method with UV detection. The area percent (AP) loss of the prodrug peak was quantified as a function of time. The appearance of parent peak was identified from the chromatographic retention time. The half-life (t1/2, h) of the prodrug was calculated by using a pseudo-first order equation from a AP loss vs time plot.

[3] = aqueous buffer, 25 °C, pH 1, simulated gastric fluid, aqueous buffer pH 1, 25° C., read-out: Solubility (mg/mL) at 25° C. pH 1
[4] = aqueous buffer, 25 °C, pH 4, aqueous buffer, aqueous buffer pH 4, 25° C., read-out: Solubility (mg/mL) at 25° C. pH 4
[5] = aqueous buffer, 25 °C, pH 6.5, aqueous buffer, aqueous buffer pH 6.5, 25° C., read-out: Solubility (mg/mL) at 25° C. pH 6.5
[6] = pH 1, pH 1 (0.1 M HCl), read-out: Stability (t1/2, h) at 37° C. pH 1 (converted)
[7] = pH 4, pH 4 (acetate buffer), read-out: Stability (t1/2, h) at 37° C. pH 4 (converted)
[8] = pH 6.5, pH 6.5 (phosphate buffer), read-out: Stability (t1/2, h) at 37° C. pH 6.5 (converted)

SMILES	solubility [1, 3]	solubility [1, 4]	solubility [1, 5]	half-life [2, 6]	half-life [2, 7]	half-life [2, 8]	solubility ([1]; simulated gastric fluid, aqueous buffer pH 1, 25° C., read-out: Solubility (mg/mL) at 25° C. pH 1)	solubility ([1]; aqueous buffer pH 4, 25° C., read-out: Solubility (mg/mL) at 25° C. pH 4)	solubility ([1]; aqueous buffer pH 6.5, 25° C., read-out: Solubility (mg/mL) at 25° C. pH 6.5)	half-life ([2]; pH 1 (0.1 M HCl), read-out: Stability (t1/2, h) at 37° C. pH 1 (converted))	half-life ([2]; pH 4 (acetate buffer), read-out: Stability (t1/2, h) at 37° C. pH 4 (converted))	half-life ([2]; pH 6.5 (phosphate buffer), read-out: Stability (t1/2, h) at 37° C. pH 6.5 (converted))
Cc1c(-c2c(C(C)C)c3cc(C4CCN(CC(N)=O)CC4)ccc3n2C(=O)CCCOP(=O)(O)O)cn2ncnc2c1C [Example 10, 4-(5-(1-(2-Amino-2-oxoethyl)piperidin-4-yl)-2-(7,8-dimethyl-[1,2,4]triazolo[1,5-a]pyridin-6-yl)-3-isopropyl-1H-indol-1-yl)-4-oxobutyl dihydrogen phosphate]	0.43 mg/mL	0.1 mg/mL	0.12 mg/mL	347 h	> 500 h	> 500 h						
Cc1c(-c2c(C(C)C)c3cc(C4CCN(CC(N)=O)CC4)ccc3n2SC[C@H](N)C(=O)O)cn2ncnc2c1C [Example 11, S-(5-(1-(2-Amino-2-oxoethyl)piperidin-4-yl)-2-(7,8-dimethyl-[1,2,4]triazolo[1,5-a]pyridin-6-yl)-3-isopropyl-1H-indol-1-yl)-L-cysteine]	> 1.03 mg/mL	0.007 mg/mL (≈ 12.4 µM)	> 1.02 mg/mL	> 500 h	> 500 h	154 h						
Cc1c(-c2c(C(C)C)c3cc(C4CCN(CC(N)=O)CC4)ccc3n2C(=O)OCOC(=O)C2(N)CC2)cn2ncnc2c1C [Example 15, ((1-Aminocyclopropane-1-carbonyl)oxy)methyl 5-(1-(2-amino-2-oxoethyl)piperidin-4-yl)-2-(7,8-dimethyl-[1,2,4]triazolo[1,5-a]pyridin-6-yl)-3-isopropyl-1H-indole-1-carboxylate trifluoroacetate]	> 0.94 mg/mL	> 0.9 mg/mL	0.8 mg/mL	347 h	139 h	39 h						
COc1cc(C(=O)OCOC(=O)n2c(-c3cn4ncnc4c(C)c3C)c(C(C)C)c3cc(C4CCN(CC(N)=O)CC4)ccc32)ccc1OP(=O)(O)O [Example 22, ((3-Methoxy-4-(phosphonooxy)benzoyl)oxy)methyl 5-(1-(2-amino-2-oxoethyl)piperidin-4-yl)-2-(7,8-dimethyl-[1,2,4]triazolo[1,5-a]pyridin-6-yl)-3-isopropyl-1H-indole-1-carboxylate]							> 1.02 mg/mL	0.02 mg/mL (≈ 26.7 µM)	0.02 mg/mL (≈ 26.7 µM)	400 h	> 500 h	> 500 h
CNCCN(C)C(=O)OC[N+]1(CC(N)=O)CCC(c2ccc3[nH]c(-c4cn5ncnc5c(C)c4C)c(C(C)C)c3c2)CC1 (stereo not shown) [Example 23, 1-(2-Amino-2-oxoethyl)-4-(2-(7,8-dimethyl-[1,2,4]triazolo[1,5-a]pyridin-6-yl)-3-isopropyl-1H-indol-5-yl)-1-(((methyl(2-(methylamino)ethyl)carbamoyl)oxy)methyl) piperidin-1-ium trifluoroacetate]	> 0.82 mg/mL	> 0.85 mg/mL		> 500 h	9.6 h	0.1 h						

Further lines, with some results ahead:

solubility [1, 3]	solubility [1, 4]	solubility [1, 5]	half-life [2, 6]	half-life [2, 7]	half-life [2, 8]	SMILES	solubility ([1]; simulated gastric fluid, aqueous buffer pH 1, 25° C., read-out: Solubility (mg/mL) at 25° C. pH 1)	solubility ([1]; aqueous buffer pH 4, 25° C., read-out: Solubility (mg/mL) at 25° C. pH 4)	solubility ([1]; aqueous buffer pH 6.5, 25° C., read-out: Solubility (mg/mL) at 25° C. pH 6.5)	half-life ([2]; pH 1 (0.1 M HCl), read-out: Stability (t1/2, h) at 37° C. pH 1 (converted))	half-life ([2]; pH 4 (acetate buffer), read-out: Stability (t1/2, h) at 37° C. pH 4 (converted))	half-life ([2]; pH 6.5 (phosphate buffer), read-out: Stability (t1/2, h) at 37° C. pH 6.5 (converted))
> 1.51 mg/mL	> 0.98 mg/mL		179 h	85 h	1.6 h	CNCC(=O)OCc1cccnc1N(C)C(=O)OC(C)[N+]1(CC(N)=O)CCC(c2ccc3[nH]c(-c4cn5ncnc5c(C)c4C)c(C(C)C)c3c2)CC1 (stereo not shown) [Example 14, 1-(2-Amino-2-oxoethyl)-4-(2-(7,8-dimethyl-[1,2,4]triazolo[1,5-a]pyridin-6-yl)-3-isopropyl-1H-indol-5-yl)-1-(1-((methyl(3-(((methylglycyl)oxy)methyl)pyridin-2-yl)carbamoyl)oxy)ethyl)piperidin-1-ium ditrifluoroacetate]						
> 1.09 mg/mL	0.7 mg/mL (≈ 1050 µM)	> 1.01 mg/mL	157 h	207 h	65 h	Cc1c(-c2c(C(C)C)c3cc(C4CCN(CC(N)=O)CC4)ccc3n2C(=O)CN(C)C(=O)OCOP(=O)(O)O)cn2ncnc2c1C [Example 19, (Phosphonooxy)methyl (2-(5-(1-(2-amino-2-oxoethyl)piperidin-4-yl)-2-(7,8-dimethyl-[1,2,4]triazolo[1,5-a]pyridin-6-yl)-3-isopropyl-1H-indol-1-yl)-2-oxoethyl)(methyl) carbamate]						
